ChEMBL document CHEMBL1157705, “Carbonic anhydrase inhibitors. Identification of selective inhibitors of the human mitochondrial isozymes VA and VB over the cytosolic isozymes I and II from a natural product-based phenolic library” (Bioorg Med Chem, 2010)

Assays:
[1] = target: Carbonic anhydrase 2 (Homo sapiens) (UniProt P00918)
[2] = target: Carbonic anhydrase 5B, mitochondrial (Homo sapiens) (UniProt Q9Y2D0)
Description: Inhibition of human recombinant carbonic anhydrase 5B by stopped flow CO2 hydration method

[3] = target: Carbonic anhydrase 1 (Homo sapiens) (UniProt P00915)
Sequence of Carbonic anhydrase 1 (Homo sapiens) (P00915 2-261 limits assumed): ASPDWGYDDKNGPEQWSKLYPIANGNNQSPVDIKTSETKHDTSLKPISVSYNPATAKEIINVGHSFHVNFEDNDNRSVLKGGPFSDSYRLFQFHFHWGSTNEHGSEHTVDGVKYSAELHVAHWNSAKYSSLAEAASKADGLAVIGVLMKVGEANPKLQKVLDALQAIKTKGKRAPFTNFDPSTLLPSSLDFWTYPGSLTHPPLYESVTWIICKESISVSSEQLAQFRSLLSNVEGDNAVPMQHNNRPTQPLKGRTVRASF

Sequence of Carbonic anhydrase 5B, mitochondrial (Homo sapiens) (Q9Y2D0 whole entry): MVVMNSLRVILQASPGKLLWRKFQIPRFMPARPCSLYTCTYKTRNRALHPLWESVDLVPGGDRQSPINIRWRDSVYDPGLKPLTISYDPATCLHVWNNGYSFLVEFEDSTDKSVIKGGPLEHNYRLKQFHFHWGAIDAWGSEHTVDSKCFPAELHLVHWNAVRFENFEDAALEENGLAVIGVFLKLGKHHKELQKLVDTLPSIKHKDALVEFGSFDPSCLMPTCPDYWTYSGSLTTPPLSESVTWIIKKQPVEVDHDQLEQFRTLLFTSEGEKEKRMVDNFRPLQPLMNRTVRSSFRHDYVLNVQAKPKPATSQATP

Row | Structure (SMILES) | Ki [1] [µM] | Ki [2] [µM] | Ki [3] [µM]
1 | O=C(Cc1ccc(O)c(Cl)c1)NCCc1ccccc1 | 9.8 | 0.091 | 9.6
2 | O=C(Cc1ccc(O)c(Cl)c1)NCc1ccccc1 | 11.4 | 0.085 | 10.5
3 | O=C(O)Cc1ccc(O)cc1 | 10.3 | 0.107 | 309
4 | O=C(O)/C=C/C(=O)O | 10.5 | 0.09 | 395
5 | COC(=O)/C=C/C(=O)O | 7.5 | 0.098 | 284
6 | CCCCNC(=O)Cc1ccc(O)c(Cl)c1 | 9.4 | 0.081 | 10.7
7 | OCCc1ccc(O)cc1 | 8.7 | 0.105 | 430

The remaining lines, values ahead:

Row | Ki [1] [µM] | Ki [2] [µM] | Ki [3] [µM] | Structure (SMILES)
8 | 230 | 0.071 | 307 | COc1cc(C[C@@H](C)[C@H](C)Cc2ccc(O)c(OC)c2)ccc1O
9 | 9.6 | 0.07 | 10.5 | COc1cc(/C=C2\N=C(N)NC2=O)ccc1O
10 | 10.4 | 0.084 | 158 | COCCNC(=O)Cc1ccc(O)c(Cl)c1
11 | 11.7 | 0.069 | 368 | COc1cc([C@@H]2[C@@H](C)[C@H](C)[C@H]2c2ccc(O)c(OC)c2)ccc1O
12 | 12.1 | 0.079 | 354 | COc1cc([C@@H]2[C@@H](C)[C@@H](C)[C@@H]2c2ccc(O)c(OC)c2)ccc1O
